Data from patent US20250325677A1, “STAT6 DEGRADERS” (Gilead Sciences, Inc., priority 2024, published 2025).

Target: STAT6 (Homo sapiens (Human), UniProt P42226)
Test: STAT6 degrader assay (HiBiT, HeLa LgBiT clone 4.14)
Format: cell-based
Details: HeLa LgBiT clone 4.14, 4-24 h; for Emax: read-out: STAT6 degradation Emax (%); for DC50: geometric mean, given for compounds with >80% Emax, read-out: STAT6 degradation DC50
Procedure, shortened: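 DC50 (nM) comes from luminescence of non-degraded STAT6 read 0.5 h after Nano-GLO addition, following 4-24 h compound exposure at 37° C. Cells were HeLa clone 4.14 expressing LgBiT with a CRISPR HiBiT tag on endogenous STAT6; 50 μM terfenadine set full degradation.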

Sequence of STAT6 (P42226 whole entry): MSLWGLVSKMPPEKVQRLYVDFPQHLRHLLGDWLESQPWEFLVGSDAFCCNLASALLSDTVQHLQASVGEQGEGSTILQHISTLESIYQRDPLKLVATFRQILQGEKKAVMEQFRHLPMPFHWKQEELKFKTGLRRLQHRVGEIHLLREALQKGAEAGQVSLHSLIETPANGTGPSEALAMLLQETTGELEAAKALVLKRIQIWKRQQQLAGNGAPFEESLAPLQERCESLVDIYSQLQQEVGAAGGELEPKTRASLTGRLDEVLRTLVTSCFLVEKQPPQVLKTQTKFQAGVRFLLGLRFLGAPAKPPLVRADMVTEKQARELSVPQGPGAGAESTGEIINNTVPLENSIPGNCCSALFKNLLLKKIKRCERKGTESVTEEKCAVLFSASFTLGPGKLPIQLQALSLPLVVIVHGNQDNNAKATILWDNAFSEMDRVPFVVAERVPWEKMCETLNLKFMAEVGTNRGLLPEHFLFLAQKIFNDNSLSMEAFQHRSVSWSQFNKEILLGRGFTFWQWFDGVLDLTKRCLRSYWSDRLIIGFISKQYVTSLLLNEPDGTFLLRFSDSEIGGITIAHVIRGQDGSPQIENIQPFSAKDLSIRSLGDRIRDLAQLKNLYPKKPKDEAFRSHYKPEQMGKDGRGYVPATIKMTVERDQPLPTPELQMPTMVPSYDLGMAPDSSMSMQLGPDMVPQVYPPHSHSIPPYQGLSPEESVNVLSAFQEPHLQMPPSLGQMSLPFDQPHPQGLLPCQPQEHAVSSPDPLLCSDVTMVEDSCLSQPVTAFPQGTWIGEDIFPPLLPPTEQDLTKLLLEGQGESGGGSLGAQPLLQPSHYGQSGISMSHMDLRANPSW

Emax [%] | DC50 [nM] | Compound
40 to 50 | – | Cn1c(CN2CCC(c3ccc(C(=O)N4CCC(CN5CCN(c6ccc7c(c6)n(C)c(=O)n7C6CCC(=O)NC6=O)CC5)CC4)cc3)CC2)cc2c(-c3ccc(N)nc3)ccnc21 (centres unmarked) [Example 3m1, 3-(5-(4-((1-(4-(1-((4-(6-aminopyridin-3-yl)-1-methyl-1H-pyrrolo[2,3-b]pyridin-2-yl)methyl)-piperidin-4-yl)benzoyl)piperidin-4-yl)methyl)piperazin-1-yl)-3-methyl-2-oxo-2,3-dihydro-1H-benzo[d]imidazol-1-yl)piperidine-2,6-dione]
– | 1.1 | COCc1nc2cc(-c3ccnc4c3cc(CN3CCC(c5ccc(C(=O)N6CCC(CN7CCN(Cc8ccc9c(c8)oc(=O)n9C8CCC(=O)NC8=O)CC7)CC6)cc5)CC3)n4C)ccc2[nH]1 (centres unmarked) [Example 3n2, 3-(6-((4-((1-(4-(1-((4-(2-(methoxymethyl)-1H-benzo[d]imidazol-5-yl)-1-methyl-1H-pyrrolo[2,3-b]pyridin-2-yl)methyl)piperidin-4-yl)benzoyl)piperidin-4-yl)methyl)piperazin-1-yl)methyl)-2-oxobenzo[d]-oxazol-3 (2H)-yl)piperidine-2,6-dione]
< 20 | – | Cn1c(CN2CCC(c3ccc(C(=O)N4CCC(Cn5cc(-c6cccc7c6n(C)c(=O)n7C6CCC(=O)NC6=O)nn5)CC4)cc3)CC2)cc2c(-c3ccc4[nH]ncc4c3)ccnc21 (centres unmarked) [Example 3t2, 3-(4-(1-((1-(4-(1-((4-(1H-indazol-5-yl)-1-methyl-1H-pyrrolo[2,3-b]pyridin-2-yl)methyl)piperidin-4-yl)benzoyl)piperidin-4-yl)methyl)-1H-1,2,3-triazol-4-yl)-3-methyl-2-oxo-2,3-dihydro-1H-benzo[d]imidazol-1-yl)piperidine-2,6-dione]
50 to 60 | – | Cn1c(CN2CCC(c3ccc(C(=O)N4CCC(CN5CCC(c6ccc7c(c6)n(C)c(=O)n7C6CCC(=O)NC6=O)CC5)CC4)cc3)CC2)cc2c(-c3ccc4[nH]ncc4c3)ccnc21 (centres unmarked) [Example 3d1, 3-(5-(1-((1-(4-(1-((4-(1H-indazol-5-yl)-1-methyl-1H-pyrrolo[2,3-b]pyridin-2-yl)methyl)piperidin-4-yl)benzoyl)piperidin-4-yl)methyl)piperidin-4-yl)-3-methyl-2-oxo-2,3-dihydro-1H-benzo[d]imidazol-1-yl)piperidine-2,6-dione]
20 to 30 | – | Cn1c(CN2CCC(c3ccc(C(=O)N4CCC(N5CCN(Cc6ccc7c(c6)n(C)c(=O)n7C6CCC(=O)NC6=O)CC5)CC4)cc3)CC2)cc2c(-c3ccc4[nH]ncc4c3)ccnc21 (centres unmarked) [Example 3j1, 3-(5-((4-(1-(4-(1-((4-(1H-indazol-5-yl)-1-methyl-1H-pyrrolo[2,3-b]pyridin-2-yl)methyl)piperidin-4-yl)benzoyl)piperidin-4-yl)piperazin-1-yl)methyl)-3-methyl-2-oxo-2,3-dihydro-1H-benzo[d]imidazol-1-yl)piperidine-2,6-dione]
< 20 | – | CNc1ccc(-c2ccnc3c2cc(CN2CCC(c4c(F)cc(C(=O)N5CCC(CN6CCN(c7cc8c(cc7F)n(C7CCC(=O)NC7=O)c(=O)n8C)CC6)CC5)cc4F)CC2)n3C)cn1 (centres unmarked) [Example 3h49, 3-(5-(4-((1-(3,5-difluoro-4-(1-((1-methyl-4-(6-(methylamino)pyridin-3-yl)-1H-pyrrolo[2,3-b]pyridin-2-yl)methyl)piperidin-4-yl)benzoyl)piperidin-4-yl)methyl)piperazin-1-yl)-6-fluoro-3-methyl-2-oxo-2,3-dihydro-1H-benzo[d]imidazol-1-yl)piperidine-2,6-dione]
– | 0.8 | Cc1cc(C(=O)N2CCC(CN3CCN(Cc4ccc5c(c4)n(C4CC4)c(=O)n5[C@@H]4CCC(=O)NC4=O)C[C@@H]3C)CC2)cc(F)c1C1=CCN([C@@H](C)c2cc3c(-c4ccc(N)nc4)ccnc3n2C)CC1 (single isomer, unassigned) [Example 3h17]
– | 4 | C[C@@H](c1cc2c(-c3ccc(N)nc3)ccnc2n1C)N1CCC(c2ccc(C(=O)N3CCC(CN4CCN(Cc5ccc6c(c5)n(CC(F)(F)F)c(=O)n6C5CCC(=O)NC5=O)CC4)CC3)cc2)CC1 (stereo partly drawn) [Example 3e25, 3-(5-((4-((1-(4-(1-((S)-1-(4-(6-aminopyridin-3-yl)-1-methyl-1H-pyrrolo[2,3-b]pyridin-2-yl)ethyl)piperidin-4-yl)benzoyl)piperidin-4-yl)methyl)piperazin-1-yl)methyl)-2-oxo-3-(2,2,2-trifluoroethyl)-2,3-dihydro-1H-benzo[d]imidazol-1-yl)piperidine-2,6-dione]
< 20 | – | COCc1nc2cc(-c3ccnc4c3cc(CN3CCC(c5ccc(C(=O)N6CCC(CN7CCN(Cc8ccc9c(c8)n(C8CCC(=O)NC8=O)c(=O)n9C)CC7)CC6)cc5)CC3)n4C)ccc2[nH]1 (centres unmarked) [Example 3o1, 3-(6-((4-((1-(4-(1-((4-(2-(methoxymethyl)-1H-benzo[d]imidazol-5-yl)-1-methyl-1H-pyrrolo[2,3-b]pyridin-2-yl)methyl)piperidin-4-yl)benzoyl)piperidin-4-yl)methyl)piperazin-1-yl)methyl)-3-methyl-2-oxo-2,3-dihydro-1H-benzo[d]imidazol-1-yl)piperidine-2,6-dione]
– | 1.4 | Cn1c(CN2CCC(c3ccc(C(=O)N4CCC(CN5CCN(Cc6ccc7c(c6)n(C6CC6)c(=O)n7C6CCC(=O)NC6=O)CC5)CC4)cc3)CC2)cc2c(-c3ccc4[nH]ncc4c3)ccnc21 (centres unmarked) [Example 3e6, 3-(5-((4-((1-(4-(1-((4-(1H-indazol-5-yl)-1-methyl-1H-pyrrolo[2,3-b]pyridin-2-yl)methyl)piperidin-4-yl)benzoyl)piperidin-4-yl)methyl)piperazin-1-yl)methyl)-3-cyclopropyl-2-oxo-2,3-dihydro-1H-benzo[d]imidazol-1-yl)piperidine-2,6-dione]
– | 0.3 | COCc1nc2cc(-c3ccnc4c3cc([C@H](C)N3CCC(c5ccc(C(=O)N6CCC(CN7CCN(Cc8ccc9c(c8)n(C)c(=O)n9C8CCC(=O)NC8=O)C[C@@H]7C)CC6)cc5)CC3)n4C)ccc2[nH]1 (stereo partly drawn) [Example 3e22, 3-(5-(((S)-4-((1-(4-(1-((S)-1-(4-(2-(methoxymethyl)-1H-benzo[d]imidazol-5-yl)-1-methyl-1H-pyrrolo[2,3-b]pyridin-2-yl)ethyl)piperidin-4-yl)benzoyl)piperidin-4-yl)methyl)-3-methylpiperazin-1-yl)methyl)-3-methyl-2-oxo-2,3-dihydro-1H-benzo[d]imidazol-1-yl)piperidine-2,6-dione]
– | 0.1 | Cc1cc(C(=O)N(C)c2ccc(C3CCN(Cc4ccc5c(c4)n(C)c(=O)n5C4CCC(=O)NC4=O)CC3)cc2)cc(F)c1C1=CCN(Cc2cc3c(-c4ccc(N)nc4)ccnc3n2C)CC1 (centres unmarked) [Example 3h39, 4-(1-((4-(6-aminopyridin-3-yl)-1-methyl-1H-pyrrolo[2,3-b]pyridin-2-yl)methyl)-1,2,3,6-tetrahydropyridin-4-yl)-N-(4-(1-((1-(2,6-dioxopiperidin-3-yl)-3-methyl-2-oxo-2,3-dihydro-1H-benzo[d]imidazol-5-yl)methyl)piperidin-4-yl)phenyl)-3-fluoro-N,5-dimethylbenzamide]
– | 1.5 | Cn1c(CN2CCC(c3ccc(C(=O)N4CCC(CN5CCN(Cc6ccc7c(c6F)n(C)c(=O)n7C6CCC(=O)NC6=O)CC5)CC4)cc3)CC2)cc2c(-c3ccc(N)nc3)ccnc21 (centres unmarked) [Example 3e14, 3-(5-((4-((1-(4-(1-((4-(6-aminopyridin-3-yl)-1-methyl-1H-pyrrolo[2,3-b]pyridin-2-yl)methyl)piperidin-4-yl)benzoyl)piperidin-4-yl)methyl)piperazin-1-yl)methyl)-4-fluoro-3-methyl-2-oxo-2,3-dihydro-1H-benzo[d]imidazol-1-yl)piperidine-2,6-dione]
– | 3 | Cn1c(CN2CCC(c3ccc(C(=O)N4CCC(CCn5cc(-c6cccc7c6n(C)c(=O)n7C6CCC(=O)NC6=O)cn5)CC4)cc3)CC2)cc2c(-c3ccc4[nH]ncc4c3)ccnc21 (centres unmarked) [Example 3l2, 3-(4-(1-(2-(1-(4-(1-((4-(1H-indazol-5-yl)-1-methyl-1H-pyrrolo[2,3-b]pyridin-2-yl)methyl)-piperidin-4-yl)benzoyl)piperidin-4-yl)ethyl)-1H-pyrazol-4-yl)-3-methyl-2-oxo-2,3-dihydro-1H-benzo[d]-imidazol-1-yl)piperidine-2,6-dione]
– | 1 | CNc1ccc(-c2ccnc3c2cc([C@H](C)N2CCC(c4ccc(C(=O)N5CCC(CN6CCN(Cc7cc8c(cc7F)n(C7CCC(=O)NC7=O)c(=O)n8C)C[C@@H]6C)CC5)cc4)CC2)n3C)cn1 (stereo partly drawn) [Example 3h21, 3-(6-fluoro-3-methyl-5-(((S)-3-methyl-4-((1-(4-(1-((S)-1-(1-methyl-4-(6-(methylamino)pyridin-3-yl)-1H-pyrrolo[2,3-b]pyridin-2-yl)ethyl)piperidin-4-yl)benzoyl)piperidin-4-yl)methyl)piperazin-1-yl)methyl)-2-oxo-2,3-dihydro-1H-benzo[d]imidazol-1-yl)piperidine-2,6-dione]
< 20 | – | Cn1c(CN2CCC(c3ccc(C(=O)N4CCC(CN5CCN(Cc6ccc7c(c6)n(C6CCC(=O)NC6=O)c(=O)n7C)CC5)CC4)cc3)CC2)cc2c(-c3ccc(N)nc3)ccnc21 (centres unmarked) [Example 3o2, 3-(6-((4-((1-(4-(1-((4-(6-aminopyridin-3-yl)-1-methyl-1H-pyrrolo[2,3-b]pyridin-2-yl)methyl)piperidin-4-yl)benzoyl)piperidin-4-yl)methyl)piperazin-1-yl)methyl)-3-methyl-2-oxo-2,3-dihydro-1H-benzo[d]imidazol-1-yl)piperidine-2,6-dione]
< 20 | – | Cn1c(CN2CCC(c3ccc(C(=O)N4CCC(N5CCN(Cc6cccc7c6n(C)c(=O)n7C6CCC(=O)NC6=O)CC5)CC4)cc3)CC2)cc2c(-c3ccc4[nH]ncc4c3)ccnc21 (centres unmarked) [Example 3j2, 3-(4-((4-(1-(4-(1-((4-(1H-indazol-5-yl)-1-methyl-1H-pyrrolo[2,3-b]pyridin-2-yl)methyl)piperidin-4-yl)benzoyl)piperidin-4-yl)piperazin-1-yl)methyl)-3-methyl-2-oxo-2,3-dihydro-1H-benzo[d]imidazol-1-yl)piperidine-2,6-dione]
